Experimental data taken from patent publication US20160046573A1, “IDENTIFYING PATIENT RESPONSE TO S1P RECEPTOR MODULATOR ADMINISTRATION” (Novartis AG, priority 2013, published 2016).

How the values were obtained:
[1] = Enzyme mapping: metabolite formation by HLM pool; type: in vitro ADME, human; conditions: HLM 108 pmol/mL, 30 min
Description: A pool of liver microsomes prepared from 47 individual donors was obtained from BD Biosciences (Woburn, Mass., USA, catalog N^o 452161, Lot 26). Pathogenicity testing of each of the livers in the pool was performed using a PCR protocol. […] The total P450 content was 360 pmol/mg protein. […]
After 30 min at −80° C. […] Sample solutions were analyzed by HPLC combined with radiodetection. […]
Microsomes prepared from baculovirus infected insect cells (BTI-TN-5B1-4) expressing one single human cytochrome P450 isoenzyme were used to assess the involvement of specific enzymes in the biotransformation of [14C]BAF312. […] Lower metabolism activities were also observed in incubation with CYP3A4, while some trace metabolism was detected with other CYP isoenzymes (2B6, 2C8, 2C19, 2J2, 3A5, 1A1).

CYP2B6 = molecular target: T1, CYP2B6 (Homo sapiens, UniProt P20813); test: Enzyme mapping: metabolite formation by recombinant P450 isoenzyme; type: in vitro ADME; conditions: for Metabolism Rate: 30 pmol/mL, 30 min
T1 construct: purchased BD Biosciences 456210; host or cells: baculovirus infected insect cells (BTI-TN-5B1-4)
T1 sequence (P20813 1-491): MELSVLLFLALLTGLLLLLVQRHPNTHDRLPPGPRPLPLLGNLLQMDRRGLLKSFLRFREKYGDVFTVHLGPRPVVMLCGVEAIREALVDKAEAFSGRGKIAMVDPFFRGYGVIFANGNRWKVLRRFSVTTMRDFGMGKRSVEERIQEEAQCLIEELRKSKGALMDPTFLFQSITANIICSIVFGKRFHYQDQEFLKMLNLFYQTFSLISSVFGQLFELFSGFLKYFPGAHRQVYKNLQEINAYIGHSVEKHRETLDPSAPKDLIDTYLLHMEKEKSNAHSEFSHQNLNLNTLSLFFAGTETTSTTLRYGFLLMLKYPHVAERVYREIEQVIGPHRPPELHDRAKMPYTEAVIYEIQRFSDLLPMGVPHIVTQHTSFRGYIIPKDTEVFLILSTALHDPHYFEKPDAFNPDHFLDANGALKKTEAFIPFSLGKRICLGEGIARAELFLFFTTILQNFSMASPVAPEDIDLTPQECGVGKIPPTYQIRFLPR
Description: (§1) Microsomes prepared from baculovirus infected insect cells (BTI-TN-5B1-4) expressing the following human P450 enzymes and the insect cell membrane preparations (negative control) were obtained from BD Biosciences (Woburn, Mass., USA).
(§2) The final concentrations are given in parentheses.
(§3) After 30 min at −80° C. […] The supernatant was withdrawn. […] Sample solutions were analyzed by HPLC combined with radiodetection. (for HLPC method, see Section 1.6)
(§4) Mean specific CYP enzyme concentrations in human liver microsomes were obtained from literature values (Rowland Yeo K, Rostami-Hodjegan A and Trucker GT (2004)] Abundance of cytochromes P450 in human liver: a meta-analysis. Br. J. Clinical Pharmacology; 57:687-688). For some recombinant human CYPs, the enzyme kinetic parameters were estimated by calculation assuming Michaelis-Menten type behavior for the two concentrations used, solving a linear equation system for 2 linear equations with 2 variables: […]
(§5) Microsomes prepared from baculovirus infected insect cells (BTI-TN-5B1-4) expressing one single human cytochrome P450 isoenzyme were used to assess the involvement of specific enzymes in the biotransformation of [14C]BAF312. Incubation experiments with a panel of 21 recombinant human CYPs (CYP1A1, 1A2, 1B1, 2A6, 2B6, 2C8, 2C9*1, 2C18, 2C19, 2D6*1, 2E1, 2J2, 3A4, 3A5, 3A7, 4A11, 4F2, 4F3A, 4F3B, 4F12 and CYP19) were conducted under similar conditions for each isoenzyme with 10 and 40 μM BAF312 incubation and 30 pmol CYP/mL for 30 min. […] Lower metabolism activities were also observed in incubation with CYP3A4, while some trace metabolism was detected with other CYP isoenzymes (2B6, 2C8, 2C19, 2J2, 3A5, 1A1).

CYP2C19 = molecular target: T2, CYP2C19 (Homo sapiens, UniProt P33261); test: as above; type: in vitro ADME; conditions: for Metabolism Rate: 30 pmol/mL, 30 min
T2 construct: purchased BD Biosciences 456259; host or cells: baculovirus infected insect cells (BTI-TN-5B1-4)
Description: as §1, §2, §3, §4, §5

CYP2C8 = molecular target: T3, CYP2C8 (Homo sapiens, UniProt P10632); test: as above; type: in vitro ADME; conditions: for Metabolism Rate: 30 pmol/mL, 30 min
T3 construct: purchased BD Biosciences 456252; host or cells: baculovirus infected insect cells (BTI-TN-5B1-4)
T3 sequence (P10632 1-490): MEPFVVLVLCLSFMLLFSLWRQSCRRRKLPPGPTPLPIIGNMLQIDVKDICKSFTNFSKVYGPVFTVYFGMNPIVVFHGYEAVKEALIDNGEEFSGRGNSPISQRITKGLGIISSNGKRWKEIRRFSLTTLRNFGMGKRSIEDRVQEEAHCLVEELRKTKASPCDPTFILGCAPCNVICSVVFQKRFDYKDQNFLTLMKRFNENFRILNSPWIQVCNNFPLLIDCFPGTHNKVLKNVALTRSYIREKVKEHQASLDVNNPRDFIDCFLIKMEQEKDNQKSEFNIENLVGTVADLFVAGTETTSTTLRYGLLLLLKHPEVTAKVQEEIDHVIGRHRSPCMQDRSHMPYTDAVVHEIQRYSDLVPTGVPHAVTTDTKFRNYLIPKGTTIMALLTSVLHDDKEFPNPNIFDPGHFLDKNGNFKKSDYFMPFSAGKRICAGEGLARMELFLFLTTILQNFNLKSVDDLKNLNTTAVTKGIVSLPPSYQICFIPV
Description: as §1, §2, §3, §4, §5

T2 sequence (P33261 whole entry): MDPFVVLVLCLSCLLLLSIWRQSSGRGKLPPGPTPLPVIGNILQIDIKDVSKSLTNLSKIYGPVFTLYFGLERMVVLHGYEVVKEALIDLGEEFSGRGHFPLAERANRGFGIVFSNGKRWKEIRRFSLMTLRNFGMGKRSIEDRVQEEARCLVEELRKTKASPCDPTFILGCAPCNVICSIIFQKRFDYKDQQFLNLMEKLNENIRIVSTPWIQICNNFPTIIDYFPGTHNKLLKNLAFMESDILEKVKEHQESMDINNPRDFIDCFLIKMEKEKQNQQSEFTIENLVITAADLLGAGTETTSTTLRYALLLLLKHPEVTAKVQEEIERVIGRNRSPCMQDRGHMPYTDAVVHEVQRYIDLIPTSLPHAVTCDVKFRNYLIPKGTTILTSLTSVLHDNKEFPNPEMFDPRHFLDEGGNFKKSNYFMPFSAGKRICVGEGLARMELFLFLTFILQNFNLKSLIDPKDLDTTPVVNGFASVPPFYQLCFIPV

CCc1cc(/C(C)=N/OCc2ccc(C3CCCCC3)c(C(F)(F)F)c2)ccc1CN1CC(C(=O)O)C1 [BAF312, 1-{4-[1-(4-cyclohexyl-3-trifluoromethyl-benzyloxyimino)-ethyl]-2-ethyl-benzyl}-azetidine-3-carboxylic acid]
Metabolism Rate ([1]; 10 μM BAF312): 5.9 pmol/min/nmol CYP 450
Metabolism Rate ([1]; 40 μM BAF312): 25.3 pmol/min/nmol CYP 450
Metabolism Rate (CYP2B6; 10 μM BAF312): 17.8 pmol/min/nmol CYP 450
Metabolism Rate (CYP2B6; 40 μM BAF312): 44.4 pmol/min/nmol CYP 450
Vmax (CYP2B6; CYP 2B6, estimated by solving the Michaelis-Menten equation for the 2 substrate concentrations): 88.9 pmol/(min · nmol CYP)
Contribution (% total Rel. CL) (CYP2B6; CYP 2B6, metabolic clearance in human liver microsomes): 0.4%
Rel. CL (CYP2B6; CYP 2B6, relative to abundance in human liver microsomes): 0.04 μl/(min · nmol total CYP)
Km at 30 min (CYP2B6; human, pH 7.4, CYP 2B6, estimated by solving the Michaelis-Menten equation for the 2 substrate concentrations): 40 µM
Metabolism Rate (CYP2C19; 10 μM BAF312): 6.7 pmol/min/nmol CYP 450
Metabolism Rate (CYP2C19; 40 μM BAF312): 22.2 pmol/min/nmol CYP 450
Contribution (% total Rel. CL) (CYP2C19; CYP 2C19, metabolic clearance in human liver microsomes): 0.1%
Rel. CL (CYP2C19; CYP 2C19, relative to abundance in human liver microsomes): 0.02 μl/(min · nmol total CYP)
Metabolism Rate (CYP2C8; 10 μM BAF312): 11.1 pmol/min/nmol CYP 450
Metabolism Rate (CYP2C8; 40 μM BAF312): 13.3 pmol/min/nmol CYP 450
Contribution (% total Rel. CL) (CYP2C8; CYP 2C8, metabolic clearance in human liver microsomes): 1.7%
Rel. CL (CYP2C8; CYP 2C8, relative to abundance in human liver microsomes): 0.22 μl/(min · nmol total CYP)
